Earlier results, collected in US7709654B2, “Process for producing oxazole, imidazole, pyrrazole boryl compounds” (Board of Trustees of Michigan State University, priority 2006, dated 2010).

Target: T1, cyclooxygenase-2 (COX-2) (Homo sapiens, UniProt P35354)
T1 sequence (P35354 18-604): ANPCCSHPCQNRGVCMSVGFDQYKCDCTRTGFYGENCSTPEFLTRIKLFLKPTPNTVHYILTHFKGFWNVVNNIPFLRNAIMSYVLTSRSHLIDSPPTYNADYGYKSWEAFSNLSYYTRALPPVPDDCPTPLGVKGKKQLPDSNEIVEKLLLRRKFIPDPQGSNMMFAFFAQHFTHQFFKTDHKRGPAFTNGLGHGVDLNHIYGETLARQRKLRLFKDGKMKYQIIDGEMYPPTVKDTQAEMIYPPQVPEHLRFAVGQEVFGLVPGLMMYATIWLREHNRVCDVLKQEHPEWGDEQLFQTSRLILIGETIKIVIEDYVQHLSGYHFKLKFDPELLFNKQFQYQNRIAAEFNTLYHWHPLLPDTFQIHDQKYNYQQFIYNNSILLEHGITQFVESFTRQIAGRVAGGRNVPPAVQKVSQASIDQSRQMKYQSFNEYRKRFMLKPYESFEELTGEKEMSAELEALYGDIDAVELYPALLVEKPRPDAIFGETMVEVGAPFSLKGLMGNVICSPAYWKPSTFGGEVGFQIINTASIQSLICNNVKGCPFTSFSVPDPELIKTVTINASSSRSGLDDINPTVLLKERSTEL
Conditions: COX-2 versus COX-1

In the case of `Cc1nc(C2CCCCC2)c(-c2ccc(S(N)(=O)=O)c(F)c2)o1` [JTE-522, 4-(4-cyclohexyl-2-methyloxazol-5-yl)-2-fluorobenzenesulfonamide], the “COX-2 inhibition (in words)” value is listed as “potent, highly selective, and orally active COX-2 inhibitor”.
